In patent publication US7410963B2, “Benzo-1,4-diazepin-2-one derivatives as phosphodiesterase PDE2 inhibitors, preparation and therapeutic use thereof” (VIA Pharmaceuticals, Inc., priority 2003, dated 2008) one finds inhibition data, which are given here for 13 molecules.

Read-outs that look alike come from different tables or passages of the source.

The assay deals with T1, PDE2 (Bos taurus, UniProt P14099).
T1 sequence (P14099 1-921): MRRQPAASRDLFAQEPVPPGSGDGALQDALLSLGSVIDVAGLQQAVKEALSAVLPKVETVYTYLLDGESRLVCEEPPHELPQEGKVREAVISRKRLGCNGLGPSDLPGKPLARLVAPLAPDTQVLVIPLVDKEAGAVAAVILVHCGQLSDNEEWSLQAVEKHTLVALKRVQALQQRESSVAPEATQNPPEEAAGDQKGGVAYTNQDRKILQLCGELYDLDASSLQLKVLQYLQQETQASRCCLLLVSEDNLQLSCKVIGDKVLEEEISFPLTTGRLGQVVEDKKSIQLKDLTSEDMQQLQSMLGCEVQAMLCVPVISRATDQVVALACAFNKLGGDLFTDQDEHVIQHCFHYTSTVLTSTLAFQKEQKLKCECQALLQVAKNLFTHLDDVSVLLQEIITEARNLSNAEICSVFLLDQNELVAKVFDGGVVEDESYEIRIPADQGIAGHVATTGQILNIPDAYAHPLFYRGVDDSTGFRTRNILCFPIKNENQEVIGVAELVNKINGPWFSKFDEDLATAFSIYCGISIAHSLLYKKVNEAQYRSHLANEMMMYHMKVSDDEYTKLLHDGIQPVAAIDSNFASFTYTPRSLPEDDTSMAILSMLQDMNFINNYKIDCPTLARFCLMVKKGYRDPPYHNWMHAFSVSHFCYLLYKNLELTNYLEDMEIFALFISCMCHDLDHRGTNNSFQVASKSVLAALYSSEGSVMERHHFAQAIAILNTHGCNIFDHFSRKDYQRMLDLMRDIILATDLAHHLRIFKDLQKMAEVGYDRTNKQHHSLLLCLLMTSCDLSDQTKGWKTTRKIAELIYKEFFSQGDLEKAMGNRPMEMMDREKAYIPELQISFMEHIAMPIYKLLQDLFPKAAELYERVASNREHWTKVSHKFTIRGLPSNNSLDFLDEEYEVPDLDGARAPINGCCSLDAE
Put plainly: Radioenzymatic phosphodiesterase assay: PDE2 inhibition. Type of assay: biochemical, bovine. The conditions noted are these: read-out: PDE2 percentage of inhibition at 10 μM. Here is the method: Nucleoside radioactivity was determined by liquid scintillation.

The inhibition is the relative decrease from the control value, in per cent. For the molecule `CN1C(=O)CN=C(c2cccc(C#N)c2)c2cc(-c3ccccc3Cl)c(Oc3ccccc3)cc21` [Example 71, 3-[7-(2-Chloro-phenyl)-1-methyl-2-oxo-8-phenoxy-2,3-dihydro-1H-benzo[e][1,4]diazepin-5-yl]-benzonitrile], the inhibition at 10 µM is 82%. As to `COc1cc2c(cc1-c1ccc(Cl)cc1)C(c1cccc(C(N)=O)c1)=NCC(=O)N2C` [Example 25, 3-[7-(4-Chloro-phenyl)-8-methoxy-1-methyl-2-oxo-2,3-dihydro-1H-benzo[e][1,4]diazepin-5-yl]-benzamide], the inhibition at 10 µM (Table 1, 10 μM test compound) came to 97%. For the molecule `COc1ccccc1-c1cc2c(cc1OC)N(CCc1ccccc1)C(=O)CN=C2c1cccc(C#N)c1` [Example 38, 3-[8-Methoxy-7-(2-methoxy-phenyl)-2-oxo-1-phenethyl-2,3-dihydro-1H-benzo[e][1,4]diazepin-5-yl]-benzonitrile], the inhibition at 10 µM (Table 1, 10 μM test compound) stood at 86%. For `COc1cc2c(cc1-c1ccccc1)C(c1ccc(CCCNC(=O)OC(C)(C)C)cc1)=NCC(=O)N2C` [Example 107, {3-[4-(8-Methoxy-1-methyl-2-oxo-7-phenyl-2,3-dihydro-1H-benzo[e][1,4]diazepin-5-yl)-phenyl]-propyl}-carbamic acid tert-butyl ester], the inhibition at 10 µM came to 92%.

Regarding `CCCCC#Cc1ccc(C2=NCC(=O)N(C)c3cc(OC)c(-c4ccccc4)cc32)cc1` [Example 105, 5-(4-Hex-1-ynyl-phenyl)-8-methoxy-1-methyl-7-phenyl-1,3-dihydro-benzo[e][1,4]diazepin-2-one], the inhibition at 10 µM was determined as 42%. With `COc1cc2c(cc1-c1ccc(F)cc1)C(c1cccc(C#N)c1)=NCC(=O)N2C` [Example 2, 3-[7-(4-Fluoro-phenyl)-8-methoxy-1-methyl-2-oxo-2,3-dihydro-1H-benzo[e][1,4]diazepin-5-yl]-benzonitrile], the inhibition at 10 µM came out at 97%. In the case of `CN1C(=O)CN=C(c2cccc(C#N)c2)c2cc(-c3ccccc3)ccc21` [Example 11, 3-(1-Methyl-2-oxo-7-phenyl-2,3-dihydro-1H-benzo[e][1,4]diazepin-5-yl)-benzonitrile], the inhibition at 10 µM came to 79%. Still for that read-out and setting: next, `COc1cc2c(cc1-c1ccc(C(C)=O)cc1)C(c1cccc(C#N)c1)=NCC(=O)N2C` [Example 48, 3-[7-(4-Acetylphenyl)-8-methoxy-1-methyl-2-oxo-2,3-dihydro-1H-benzo[e][1,4]diazepin-5-yl]-benzonitrile]: 97%; `COc1ccccc1-c1cc2c(cc1Oc1ccccc1)N(C)C(=O)CN=C2c1cccc(C#N)c1` [Example 70, 3-[7-(2-Methoxy-phenyl)-1-methyl-2-oxo-8-phenoxy-2,3-dihydro-1H-benzo[e][1,4]diazepin-5-yl]-benzonitrile]: 95%; `COc1cc2c(cc1-c1cccc(Cl)c1)C(c1cccc(C#N)c1)=NCC(=O)N2C` [Example 6, 3-[7-(3-Chloro-phenyl)-8-methoxy-1-methyl-2-oxo-2,3-dihydro-1H-benzo[e][1,4]diazepin-5-yl]-benzonitrile]: 96%. Regarding `COc1ccc(C2=NCC(=O)N(C)c3cc(OC)c(-c4cc(OC)ccc4OC)cc32)cc1` [Example 110, 7-(2,5-Dimethoxy-phenyl)-8-methoxy-5-(4-methoxy-phenyl)-1-methyl-1,3-dihydro-benzo[e][1,4]diazepin-2-one], the inhibition at 10 µM was 99%.

As for `COc1cc2c(cc1-c1ccccc1Oc1ccccc1)C(c1cccc(C#N)c1)=NCC(=O)N2C` [Example 90, 3-[8-Methoxy-1-methyl-2-oxo-7-(2-phenoxy-phenyl)-2,3-dihydro-1H-benzo[e][1,4]diazepin-5-yl]-benzonitrile], the inhibition at 10 µM worked out at 98%. Regarding `COc1ccc(-c2ccc3c(c2)C(c2cccc(C#N)c2)=NCC(=O)N3C)cc1` [Example 14, 3-[7-(4-Methoxy-phenyl)-1-methyl-2-oxo-2,3-dihydro-1H-benzo[e][1,4]diazepin-5-yl]-benzonitrile], under “Table 1, 10 μM test compound”, the inhibition at 10 µM stood at 92%.
